Measurements published in ChEMBL document CHEMBL3132818, “Heterocycle-fused lupane triterpenoids inhibit Leishmania donovani amastigotes” (Medchemcomm, 2014).

How the values were obtained:
Leishmania donovani [1] = assay: Antileishmanial activity against axenic amastigote stage of Leishmania donovani MHOM/SD/1962/1S-Cl2d assessed as parasite growth inhibition at 50 uM after 24 hrs by AlamarBlue assay (reference value: 0.0 +/- 4.6%); type: functional; conditions: read-out: GI
Leishmania donovani [2] = assay: Antileishmanial activity against axenic amastigote stage of Leishmania donovani MHOM/SD/1962/1S-Cl2d assessed as parasite growth inhibition after 24 hrs by AlamarBlue assay; type: functional, organism-based
Leishmania donovani [3] = assay: Antileishmanial activity against axenic amastigote stage of Leishmania donovani MHOM/SD/1962/1S-Cl2d assessed as parasite growth inhibition at 5 uM after 24 hrs by AlamarBlue assay (reference value: 0.0 +/- 0.9%); type: functional; conditions: read-out: GI
Leishmania donovani [4] = assay: Antileishmanial activity against axenic amastigote stage of Leishmania donovani MHOM/SD/1962/1S-Cl2d assessed as parasite growth inhibition at 15 uM after 24 hrs by AlamarBlue assay (reference value: 1.5 +/- 3.8%); type: functional; conditions: read-out: GI
Leishmania donovani [5] = assay: Antileishmanial activity against intracellular amastigote stage of Leishmania donovani infected in human THP1 cells assessed as parasite growth inhibition at 5 uM after 48 hrs by luciferase reporter gene assay relative to control; type: functional; conditions: THP-1, 48 h, read-out: GI
[6] = Selectivity index, ratio of IC50 for human THP1 cells to IC50 for axenic amastigote stage of Leishmania donovani MHOM/SD/1962/1S-Cl2d; type: toxicity, cell-based, THP-1; conditions: read-out: Ratio IC50
THP-1 = assay: Cytotoxicity against human THP1 cells assessed as cell viability after 48 hrs by AlamarBlue assay; type: cell-based; conditions: THP-1, 48 h
Leishmania donovani [7] = assay: Antileishmanial activity against intracellular amastigote stage of Leishmania donovani infected in human THP1 cells assessed as parasite growth inhibition at 1 uM after 48 hrs by luciferase reporter gene assay relative to control; type: functional; conditions: THP-1, 48 h, read-out: GI
Leishmania donovani [8] = assay: Antileishmanial activity against axenic amastigote stage of Leishmania donovani MHOM/SD/1962/1S-Cl2d assessed as parasite growth inhibition at 1 uM after 24 hrs by AlamarBlue assay relative to control; type: functional; conditions: read-out: GI

SMILES	inhibition of growth at 50 µM (Leishmania donovani [1]) [%]	inhibition of growth at 5 µM (Leishmania donovani [3]) [%]	inhibition of growth at 15 µM (Leishmania donovani [4]) [%]	further results
C=C(C)[C@@H]1CC[C@]2(C(=O)O)CC[C@]3(C)[C@H](CC[C@@H]4[C@@]5(C)Cc6c[nH]nc6C(C)(C)[C@@H]5CC[C@]43C)[C@@H]12	60.2	–	–	–
C=C(C)[C@@H]1CC[C@]2(C(=O)O)CC[C@]3(C)[C@H](CC[C@@H]4[C@@]5(C)Cc6nccnc6C(C)(C)[C@@H]5CC[C@]43C)[C@@H]12	92.7	20.3	79.7	IC50 (Leishmania donovani [2]): 13.2 µM
C=C(C)[C@@H]1CC[C@]2(C(N)=O)CC[C@]3(C)[C@H](CC[C@@H]4[C@@]5(C)Cc6nccnc6C(C)(C)[C@@H]5CC[C@]43C)[C@@H]12	94.9	–	35.2	–
C=C(C)[C@@H]1CC[C@]2(C(=O)O)CC[C@]3(C)[C@H](CC[C@@H]4[C@@]5(C)CCC(=O)NC(C)(C)[C@@H]5CC[C@]43C)[C@@H]12	98.2	52	75.2	inhibition of growth at 5 µM (Leishmania donovani [5]): 54%; selectivity ratio [6]: 12.9; IC50 (THP-1): 55.5 µM; IC50 (Leishmania donovani [2]): 4.3 µM
C=C(C)[C@@H]1CC[C@]2(C(=O)O)CC[C@]3(C)[C@H](CC[C@@H]4[C@@]5(C)Cc6cccnc6C(C)(C)[C@@H]5CC[C@]43C)[C@@H]12	87.9	–	25.6	–
C=C(C)[C@@H]1CC[C@]2(C(=O)O)CC[C@]3(C)[C@H](CC[C@@H]4[C@@]5(C)Cc6cnoc6C(C)(C)[C@@H]5CC[C@]43C)[C@@H]12	95.7	–	15.6	–
C=C(C)[C@@H]1CC[C@]2(C(N)=O)CC[C@]3(C)[C@H](CC[C@@H]4[C@@]5(C)Cc6cnoc6C(C)(C)[C@@H]5CC[C@]43C)[C@@H]12	84.3	–	16.7	–
CC(C)[C@@H]1CC[C@]2(C(=O)O)CC[C@]3(C)[C@H](CC[C@@H]4[C@@]5(C)Cc6cnoc6C(C)(C)[C@@H]5CC[C@]43C)[C@@H]12	2.4	–	–	–
C=C(C)[C@@H]1CC[C@]2(COC(C)=O)CC[C@]3(C)[C@H](CC[C@@H]4[C@@]5(C)Cc6cnoc6C(C)(C)[C@@H]5CC[C@]43C)[C@@H]12	6.1	–	–	–
C=C(C)[C@@H]1CC[C@]2(C=O)CC[C@]3(C)[C@H](CC[C@@H]4[C@@]5(C)Cc6cnoc6C(C)(C)[C@@H]5CC[C@]43C)[C@@H]12	34.2	–	21.1	–
CC1(C)CC[C@]23CC[C@]4(C)[C@H](CC[C@@H]5[C@@]6(C)Cc7c([nH]c8ccccc78)C(C)(C)[C@@H]6CC[C@]54C)[C@H]2[C@H]1OC3	19.8	–	18.5	–
CC1(C)CC[C@]23CC[C@]4(C)[C@H](CC[C@@H]5[C@@]6(C)Cc7c([nH]c8ccc(F)cc78)C(C)(C)[C@@H]6CC[C@]54C)[C@H]2[C@H]1OC3	6.8	0.2	10.2	–
C=C(C)[C@@H]1CC[C@]2(/C=N/O)CC[C@]3(C)[C@H](CC[C@@H]4[C@@]5(C)Cc6nccnc6C(C)(C)[C@@H]5CC[C@]43C)[C@@H]12	2.8	–	–	–
C=C(C)[C@@H]1CC[C@]2(CO)CC[C@]3(C)[C@H](CC[C@@H]4[C@@]5(C)Cc6cnoc6C(C)(C)[C@@H]5CC[C@]43C)[C@@H]12	56.9	–	–	–
C=C(C)[C@@H]1CC[C@]2(C(=O)O)CC[C@]3(C)[C@H](CC[C@@H]4[C@@]5(C)Cc6c([nH]c7ccccc67)C(C)(C)[C@@H]5CC[C@]43C)[C@@H]12	23.4	5	27.4	–
C=C(C)[C@@H]1CC[C@]2(C(=O)O)CC[C@]3(C)[C@H](CC[C@@H]4[C@@]5(C)Cc6c([nH]c7ccc(OC)cc67)C(C)(C)[C@@H]5CC[C@]43C)[C@@H]12	29.3	14	17.5	–
C[C@@H]1[C@H](O)[C@@H](C)/C=C/C=C/C=C/C=C/C=C/C=C/C=C/[C@H](O[C@@H]2O[C@H](C)[C@@H](O)[C@H](N)[C@@H]2O)C[C@@H]2O[C@](O)(C[C@@H](O)C[C@@H](O)[C@H](O)CC[C@@H](O)C[C@@H](O)CC(=O)O[C@H]1C)C[C@H](O)[C@H]2C(=O)O [AMPHOTERICIN B]	–	–	–	inhibition of growth at 1 µM (Leishmania donovani [7]): 96.7%; inhibition of growth at 1 µM (Leishmania donovani [8]): 99.9%
C=C(C)[C@@H]1CC[C@]2(C(=O)O)CC[C@]3(C)[C@H](CC[C@@H]4[C@@]5(C)CC[C@H](O)C(C)(C)[C@@H]5CC[C@]43C)[C@@H]12 [BETULINIC ACID]	61.1	–	–	–
C=C(C)[C@@H]1CC[C@]2(C(=O)O)CC[C@]3(C)[C@H](CC[C@@H]4[C@@]5(C)CCC(=O)C(C)(C)[C@@H]5CC[C@]43C)[C@@H]12 [BETUNOLIC ACID]	98.6	–	45.9	–
C=C(C)[C@@H]1CC[C@]2(C(=O)O)CC[C@]3(C)[C@H](CC[C@@H]4[C@@]5(C)CC[C@H](OC(=O)CC(C)(C)C(=O)O)C(C)(C)[C@@H]5CC[C@]43C)[C@@H]12 [BEVIRIMAT]	100	59	69.1	selectivity ratio [6]: 7.5; IC50 (THP-1): 54 µM; IC50 (Leishmania donovani [2]): 7.2 µM
